The nature of data set [1]: Toxicity in BALB/c mouse xenografted with human HCCLM3 cells assessed as pathological change in spleen at 50 mg/kg,ip administration measured after 22 days by hematoxylin and eosin staining based microscopic analysis. The class given is organism-based. The settings on record: in vivo, 528 h, time 22 day. Background: Xenograft models place foreign cells or tissue in a host animal.

Data set [2] concerns HCCLM3. The data set can be described thus: Antiproliferative activity against human HCCLM3 cells cultured as 3D cells assessed as inhibition of colony formation at 25 uM incubated for 21 days by 3D soft-agar based microscopic analysis. The format is functional, cell-based. The settings on record: time 21.0 day.
Data set [3] can be described thus: Toxicity in BALB/c mouse xenografted with human HCCLM3 cells assessed as change in mental state at 50 mg/kg,ip administration measured after 22 days. The class given is organism-based. The settings on record: in vivo, 528 h, time 22 day.
Data set [4] can be described thus: Half life in Wistar rat at 100 mg/kg,po administration measured upto 96 hrs by HPLC-UV analysis. The following applies: in vivo.
A short description of data set [5]: Toxicity in BALB/c mouse xenografted with human HCCLM3 cells assessed as pathological change in kidney at 50 mg/kg,ip administration measured after 22 days by hematoxylin and eosin staining based microscopic analysis. The format is organism-based. The following applies: in vivo, 528 h, time 22 day.
Data set [6] in a line: Toxicity in BALB/c mouse xenografted with human HCCLM3 cells assessed as pathological change in liver at 50 mg/kg,ip administration measured after 22 days by hematoxylin and eosin staining based microscopic analysis. The format is organism-based. The settings on record: in vivo, 528 h, time 22 day.
Data set [7] in a line: Toxicity in BALB/c mouse xenografted with human HCCLM3 cells assessed as pathological change in lung at 50 mg/kg,ip administration measured after 22 days by hematoxylin and eosin staining based microscopic analysis. The format is organism-based. The following applies: in vivo, 528 h, time 22 day.
A short description of data set [8]: Toxicity in BALB/c mouse xenografted with human HCCLM3 cells assessed as pathological change in heart at 50 mg/kg,ip administration measured after 22 days by hematoxylin and eosin staining based microscopic analysis. The class given is organism-based. The following applies: in vivo, 528 h, time 22 day.
A short description of data set [9]: Toxicity in BALB/c mouse xenografted with human HCCLM3 cells assessed as body weight loss at 50 mg/kg,ip administration measured after 22 days. The class given is organism-based. The following applies: in vivo, 528 h, time 22 day.
Data set [10] deals with HCCLM3. The data set can be described thus: Antitumor activity against human HCCLM3 cells xenografted in BALB/c mouse assessed as inhibition of tumor growth at 50 mg/kg,ip administration measured after 22 days. The format is functional, organism-based. The settings on record: time 22.0 day.

Activity calls are given as the source filed them.

For orientation: half-life means the time needed for the level to fall by half in the phase considered. Higher therefore signals slow decline.

Take `CNC(=O)c1cc(Oc2ccc(NC(=O)Nc3ccc(Cl)c(C(F)(F)F)c3)cc2)ccn1` [SORAFENIB]: the Activity entry in data set [1] was “Non-toxic”; in [3] it was “Toxic”; in [5] it was “Non-toxic”; in data set [6] it was “Non-toxic”; in [7], “Non-toxic”; in data set [8], “Non-toxic”. In addition, the Activity result in [9] was “Toxic”. For the same molecule, the outcome in [2] and in [10] was Active. In data set [4], this molecule had a half-life at 96 h of 1310 min.

Source of the values: ChEMBL document CHEMBL6087465, “Design, Synthesis, and Antitumor Activity Evaluation of 2-Phenylthiazole-5-Carboxylic Acid Derivatives Targeting Transactivation Response RNA-Binding Protein 2” (J Med Chem, 2025).
